Among the data in patent US20190350939A1, “CANCER TREATMENT METHOD USING Ni-SOD MIMIC COMPOUND” (NATIONAL CHIAO TUNG UNIVERSITY, priority 2018, published 2019) are tumor size values, retold here.

The test system of this test is MiaPaCa-2 cells. Put plainly: In vivo study, MiaPaCa-2 subcutaneous tumor in nude mice. The following applies: 0.27 mg/kg tail vein injection, 18th day; start 125 mm^3; PBS group 600 mm^3.

Method: In an embodiment, mice (BALB/cAnN.Cg-Foxn1nu/CrlNarl mice) are reared until 6 weeks of age, and 1×10^6 of MiaPaCa-2 cells are subcutaneously injected into the right rear leg of the mice. […] The experiment is performed until the 18th day, and the tumor size is measured every 2 days. The measurement formula of the tumor size is as follows: ½ (L×W^2), wherein L represents the longest diameter of the tumor; W represents the shortest diameter of the tumor.

Regarding `CC[C@@]1(O)C(=O)OCc2c1cc1n(c2=O)Cc2cc3ccccc3nc2-1` [CPT], the tumor size is given as 52 mm^3.
`COc1cccc2c1C(=O)c1c(O)c3c(c(O)c1C2=O)C[C@@](O)(C(=O)CO)C[C@@H]3O[C@H]1C[C@H](N)[C@H](O)[C@H](C)O1` [Doxorubicin] gave a tumor size of 64 mm^3.
In the case of `CC(=O)O[C@@]12CO[C@@H]1C[C@H](O)[C@@]1(C)C(=O)[C@H](O)C3=C(C)[C@@H](OC(=O)[C@H](O)[C@@H](NC(=O)OC(C)(C)C)c4ccccc4)C[C@@](O)([C@@H](OC(=O)c4ccccc4)[C@H]21)C3(C)C` [Taxatere], the tumor size is on record as 68 mm^3.
Regarding `Nc1ccn([C@@H]2O[C@H](CO)[C@@H](O)C2(F)F)c(=O)n1` [Gemzar], the tumor size is reported as 30 mm^3.
